Series [1] concerns Synechocystis sp. strain 6803. Briefly: Effect of copper on activity of hydrazones: in vitro growth inhibition of Synechocystis in BG-11 Cu minus / Cu plus medium (Example 11). The series is classed as cell-based. Particulars: for inhibition of growth at 0.05 µg/mL / inhibition of growth at 0.0125 µg/mL / inhibition of growth at 0.00625 µg/mL: Synechocystis, BG-11 Cu minus medium, read-out: % Inhn. Minus Copper Observed; for inhibition of growth at 0.05 µg/mL / % Inhn. Plus Copper Observed / inhibition of growth at 0.0125 µg/mL / inhibition of growth at 0.00625 µg/mL: 72 h; for % Inhn. Plus Copper Observed: BG-11 Cu plus medium. Put shortly: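 Synechocystis sp. 6803 in Chelex-treated, copper-free BG-11 (pH 7.1) or the same medium plus 0.2 μM CuCl2, inoculated from a 4×10^5/mL suspension. Growth after 72 h at 27 °C was measured by light scattering and expressed as % inhibition versus compound-free wells. Copper-plus results were compared with Colby-predicted values.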

In series [2] the test system is Synechocystis sp. strain 6803. Briefly: Growth inhibition of Synechocystis by hydrazones and isolated metal-hydrazone complexes, BG-11 Cu minus medium (Example 12). The series is classed as cell-based. The settings on record: for inhibition of growth at 0.05 µg/mL / Complex % Inhn.: Test Concn. 0.05 μg/ml. The method, then:
In vitro toxicity assays against the cyanobacterium (blue-green alga) Synechocystis sp. strain 6803 were conducted using BG-11 medium except that copper micronutrient, normally included as CuSO4.5H2O, was omitted. The medium, termed BG-11 Cu minus, was prepared by dissolving 1.5 g NaNO3, 40 mg K2HPO4, 6 mg citric acid, 1 mg Na2EDTA and 20 mg Na2CO3 in 1 liter of milli Q water and treating the solution with 0.5 g Chelex 100 resin (Bio-Rad Analytical grade, 50-100 mesh, sodium form, cat#142-2822) by stifling at room temperature for 1 h. 900 mL were decanted and 67.5 mg MgSO4.7H2O, 32.4 mg […], 5.4 mg ferric ammonium citrate and 0.9 mL trace metal mix A5 without copper (2.86 g H3BO3, 1.81 g MnCl2.4H2O, 222 mg ZnSO4.7H2O, 390 mg Na2MoO4.2H2O and Co(NO3)2.6H2O in 1 L Milli Q water) was added. The pH was adjusted to 7.1 and the medium was filter-sterilized. Medium containing copper (BG-11 Cu plus) was prepared by adding CuCl2.2H2O to the BG-11 Cu minus medium at 0.2 μM. Test compounds were dissolved in dimethylsulfoxide (DMSO) at 2 mg/mL then appropriate dilutions in BG-11 Cu minus and BG-11 Cu plus media were prepared in sterilized microcentrifuge tubes. 100 μL aliquots were dispensed into flat-bottomed 96-well microtiter plates. Synechocystis was maintained under 24 h of light on BG-11 agar plates at 27° C. A loopful of cells was added to 50 mL of BG-11 Cu minus growth medium and the culture was incubated with shaking at 200 rpm at 27° C. for 24 h. The culture (10 to 20 mL aliquot) was centrifuged in a bench centrifuge at 2400 rpm for 2 min. The resulting cell pellet was resuspended in 5 mL sterile milli Q water (which had been treated with Chelex 100 resin using 0.5 g resin per liter of water by stirring at room temperature for 1 h), and recentrifuged. The cells were resuspended in BG-11 Cu minus medium, and the suspension adjusted to 4×10^5 spores per mL. Microtiter plates containing compounds as described above were inoculated with 100 μL of this cell suspension and the plates incubated at 27° C. for 72 h before assessing algal growth by measuring light scattering in a NepheloStar plate reader. Growth inhibition was determined by comparing growth in the presence of test compound with growth in control wells lacking test compound. Hydrazones and their isolated metal complexes were compared with respect to their in vitro activity toward C. reinhardtii and the cyanobacterium (blue-green alga) Synechocystis sp. strain 6803. Metal complexes of hydrazones were prepared by precipitation from ethanol with various metal salts at 1:1, 2:1 or 3:1 molar ratios, as described in general by Ainscough, Brodie, Dobbs, Ranford, and Waters (Inorganica Chimica Acta 1998, 267, 27-38, which is expressly incorporated by reference herein). In vitro assays against Synechocystis were conducted as described in Example 11 using BG-11 Cu minus medium. Growth inhibition was determined by comparing growth in the presence of test compound with growth in control wells lacking test compound.

[3] abbreviates: Synechocystis, read-out: Hydrazone % Inhn.

Take `O=C(N/N=C/c1cc(Cl)cc(Cl)c1O)c1ccccc1` [Compound 1]: in series [1] (Test Concn. 0.05 μg/mL), the inhibition of growth at 0.05 µg/mL stood at 29% and the “% Inhn. Plus Copper Observed” value is reported as 91%. Further, the inhibition of growth at 0.05 µg/mL in series [2] (setting [3]) stood at 35%.
Consider `C/C(=N\NC(=O)c1ccccc1)c1cc(Cl)cc(Cl)c1O` [Compound 6], for which, in series [1] (Test Concn. 0.05 μg/mL), the inhibition of growth at 0.05 µg/mL worked out at 19% and the “% Inhn. Plus Copper Observed” value is 99%. Moreover, the inhibition of growth at 0.025 µg/mL in series [2] (Synechocystis, Test Concn. 0.025 μg/ml, read-out: Hydrazone % Inhn.) was 70%.
`O=C(N/N=C/c1cc(Cl)cc(Cl)c1O)c1ccccc1O` [Compound 7]: in series [1] (Test Concn. 0.05 μg/mL), the inhibition of growth at 0.05 µg/mL amounted to 22% and the “% Inhn. Plus Copper Observed” value is listed as 96%. Further, the inhibition of growth at 0.0125 µg/mL in series [2] (Synechocystis, Test Concn. 0.0125 μg/ml, read-out: Hydrazone % Inhn.) is 62%.
One may read the melting point as the temperature of the solid-liquid transition. Regarding `C/C(=N\NC(=O)c1ccc(Cl)cc1)c1cc(Cl)cc(Cl)c1O` [Compound 12], the melting point is 260 to 262 °C. Also, in series [1] (Test Concn. 0.0125 μg/mL), the inhibition of growth at 0.0125 µg/mL is 21% and the “% Inhn. Plus Copper Observed” value is 82%.
Consider `O=C(N/N=C/c1cc(Cl)cc(Br)c1O)c1ccccc1` [Compound 14], for which, in series [1] (Test Concn. 0.05 μg/mL), the inhibition of growth at 0.05 µg/mL is 50% and the “% Inhn. Plus Copper Observed” value came to 97%.
`O=C(N/N=C/c1cc(Cl)cc(Br)c1O)c1ccc(Cl)cc1` [Compound 15]: in series [1] (Test Concn. 0.00625 μg/mL), the inhibition of growth at 0.00625 µg/mL was 15% and the “% Inhn. Plus Copper Observed” value was 74%.
In the case of `O=C(N/N=C/c1cc(Cl)cc(Br)c1O)c1ccccc1O` [Compound 18], in series [1] (Test Concn. 0.0125 μg/mL), the inhibition of growth at 0.0125 µg/mL worked out at 47% and the “% Inhn. Plus Copper Observed” value is on record as 86%.
The molecule `O=C(N/N=C/c1ccc(Cl)c(Cl)c1O)c1ccccc1` [Compound 21] had a melting point of 249 to 252 °C. For the same molecule, in series [1] (Test Concn. 0.0125 μg/mL), the inhibition of growth at 0.0125 µg/mL was 39% and the “% Inhn. Plus Copper Observed” value is 96%.
Take `C/C(=N\NC(=O)c1cccc(C)c1)c1cc(Cl)cc(Cl)c1O` [Compound 25, 3-methyl-benzoic acid [1-(3,5-dichloro-2-hydroxyphenyl)-ethylidene]-hydrazide]: the melting point lay in the range of 221 to 223 °C. For the same molecule, in series [1] (Test Concn. 0.05 μg/mL), the inhibition of growth at 0.05 µg/mL came to 18% and the “% Inhn. Plus Copper Observed” value was 92%.
Turning to `C/C(=N\NC(=O)c1ccc(C)cc1)c1cc(Cl)cc(Cl)c1O` [Compound 26], the melting point lay within 262 to 264 °C. In series [1] (Test Concn. 0.05 μg/mL), the inhibition of growth at 0.05 µg/mL was 54% and the “% Inhn. Plus Copper Observed” value amounted to 95%. For the same molecule, in series [2] (setting [3]), the inhibition of growth at 0.05 µg/mL is 50%.
The matching figures for `O=C(N/N=C/c1cc(Cl)cc(C(F)(F)F)c1O)c1ccccc1` [Compound 27]: 225 to 226 °C, 31%, 95% and 41%.
The corresponding values for `O=C(N/N=C/c1cc(C(F)(F)F)cc(C(F)(F)F)c1O)c1ccc(Cl)cc1` [Compound 32] are 233 to 236 °C, 26%, 91% and 68%.
For `O=C(N/N=C/c1c(Cl)ccc(Cl)c1O)c1ccc(Cl)cc1` [Compound 45], the melting point fell in the range of 271 to 273 °C. In series [1] (Test Concn. 0.00625 μg/mL), the inhibition of growth at 0.00625 µg/mL turned out to be 33% and the “% Inhn. Plus Copper Observed” value worked out at 78%.
For `O=C(N/N=C/c1cccc(Cl)c1O)c1ccc(Cl)cc1` [Compound 52], the melting point lay in the range of 257 to 260 °C. Besides, in series [1] (Test Concn. 0.0125 μg/mL), the inhibition of growth at 0.0125 µg/mL was determined as 8% and the “% Inhn. Plus Copper Observed” value is listed as 90%. Besides, the inhibition of growth at 0.05 µg/mL in series [2] (setting [3]) was 45%.
Molecule `O=C(N/N=C/c1c(C(F)(F)F)ccc(Cl)c1O)c1ccc(Cl)cc1` [Compound 56] returned a melting point of 236 to 238 °C. In series [1] (Test Concn. 0.0125 μg/mL), the inhibition of growth at 0.0125 µg/mL worked out at 28% and the “% Inhn. Plus Copper Observed” value amounted to 75%.
Consider `Cc1ccccc1C(=O)N/N=C/c1cc(Cl)cc(Cl)c1O` [Compound 63], for which the inhibition of growth at 0.05 µg/mL in series [1] (Test Concn. 0.05 μg/mL) stood at 37%; in series [2] (setting [3]), 23%. Also, the “% Inhn. Plus Copper Observed” value in series [1] (Test Concn. 0.05 μg/mL) was 94%.
`CC(=O)[O-].CC(=O)[O-].O=C(N/N=C/c1cc(Cl)cc(Cl)c1O)c1ccccc1.[Cu+2]` [Compound 72]: the “Complex % Inhn.” value in series [2] was determined as 98%.
Same read-out and setting: for `CC(=O)[O-].CC(=O)[O-].O=C(N/N=C/c1cc(Cl)cc(Cl)c1O)c1ccccc1.O=C(N/N=C/c1cc(Cl)cc(Cl)c1O)c1ccccc1.[Cu+2]` [Compound 73] the value was 97%; for `O=C(N/N=C/c1cc(Cl)cc(Cl)c1O)c1ccccc1.O=C(N/N=C/c1cc(Cl)cc(Cl)c1O)c1ccccc1.O=S(=O)([O-])[O-].[Cu+2]` [Compound 74], 95%.
On the same count and under the same terms, for `O=C(N/N=C/c1cc(Cl)cc(Cl)c1O)c1ccccc1.[Cl-].[Cl-].[Cu+2]` [Compound 75] the value was 97%; for `O=C(N/N=C/c1cc(Cl)cc(Cl)c1O)c1ccccc1.O=C(N/N=C/c1cc(Cl)cc(Cl)c1O)c1ccccc1.[Cl-].[Cl-].[Cu+2]` [Compound 76], 96%.
For the molecule `O=C(N/N=C/c1cc(Cl)cc(Cl)c1O)c1ccccc1.O=C(N/N=C/c1cc(Cl)cc(Cl)c1O)c1ccccc1.[Cl-].[Cl-].[Mn+2]` [Compound 77], the “Complex % Inhn.” value in series [2] was 35%.
On the same count and under the same terms, for `O=C(NN=Cc1cc(Cl)cc(Cl)c1O)c1ccccc1.O=C(NN=Cc1cc(Cl)cc(Cl)c1O)c1ccccc1.[Cl-].[Cl-].[Zn+2]` [Compound 78] the value was 59%.
Take `[Cl][Cu][Cl]` [CuCl2, Copper chloride, reference compound]: the “% Inhn. by copper chloride alone” value in series [1] (CuCl2, 10 μM (so in the source), copper-plus vs copper-minus medium without test compound, across experiments) is 7.0 ± 4.6%.

Source of the values: US8906829B2, “Synergistic algicidal compositions including hydrazone derivatives and copper” (Dow AgroSciences LLC, priority 2010, dated 2014).
